The values below come from ChEMBL document CHEMBL3994660, “Novel 5-arylthio-5H-chromenopyridines as a new class of anti-fibrotic agents” (Bioorg Med Chem Lett, 2017).

The term inhibition denotes how much of the control response was suppressed.

Active and inactive are the calls of the source. No cut-off for these calls is given here.

The nature of data set [1]: Cytotoxicity against human LX2 cells assessed as reduction in cell viability at 5 to 25 uM after 6 hrs by CellTiter-Glo luminescent assay. Format: cell-based. The conditions noted are these: lx2, 6 h. (In general: In ATP-based viability assays light output follows the ATP content of the culture.)
The test system of data set [2] is Hepatitis C virus. The data set can be described thus: Inhibition of HCV NS3 protein expression infected in human Huh7.5 cells at 5 uM after 6 hrs by Western blot method relative to control. The conditions noted are these: Huh7.5, 6 h. Format: functional, Hepacivirus hominis.
Data set [3] relates to Hepatitis C virus. In words: Inhibition of HCV NS3 protein expression infected in human Huh7.5 cells at 10 uM after 6 hrs by Western blot method relative to control. Format: functional, Hepacivirus hominis. The conditions noted are these: Huh7.5, 6 h. Background: Immunoblotting shows a protein as a band on a membrane.
For data set [4], the system named is Hepatitis C virus. In words: Inhibition of HCV NS3 protein expression infected in human Huh7.5 cells at 25 uM after 6 hrs by Western blot method relative to control. Format: functional, Hepacivirus hominis. The conditions noted are these: Huh7.5, 6 h.
Data set [5] relates to Hepatitis C virus. The data set can be described thus: Inhibition of HCV NS5A protein expression infected in human Huh7.5 cells at 5 to 25 uM after 6 hrs by Western blot method. Format: functional, cell-based. The conditions noted are these: Hepacivirus hominis.
A short description of data set [6]: Cytotoxicity against human Huh7.5 cells infected with HCV assessed as reduction in cell viability at 5 to 25 uM after 6 hrs by CellTiter-Glo luminescent assay. Format: cell-based. The conditions noted are these: huh7.5, 6 h.
Data set [7] has as its system LX2. The data set can be described thus: Antifibrotic activity against human LX2 cells assessed as inhibition of spindle shaped cells by measuring round shaped cells at 10 uM after 6 hrs by light microscopic method. Format: functional, cell-based.
Data set [8] relates to LX2. In words: Antifibrotic activity against human LX2 cells assessed as inhibition of spindle shaped cells by measuring round shaped cells at 25 uM after 6 hrs by light microscopic method. Format: functional, cell-based.

Turning to `CCN(CC)c1ccc2c(c1)Oc1nc(N)c(C#N)c(N)c1C2Sc1ccc(OC)cc1` (stereo unspecified), the results for the Activity entry in data set [1] and in data set [6] were “Toxic” and “Non-Toxic”, respectively. In the data set on Hepatitis C virus [2], this molecule registered an inhibition at 5 µM of 47%. This molecule also yielded an inhibition at 10 µM with Hepatitis C virus [3] of 27%. In the data set on Hepatitis C virus [4], this molecule gave an inhibition at 25 µM of 28%. In the data set with Hepatitis C virus [5], the inhibition entry was “inactive”.

As to `CCN(CC)c1ccc2c(c1)Oc1nc(N)c(C#N)c(N)c1C2Sc1ccc(C)cc1` (stereo unspecified), the inhibition entry with Hepatitis C virus [5] was “inactive”. Also, in data set [6], the Activity result is “Non-Toxic”.

Consider `CCN(CC)c1ccc2c(c1)Oc1nc(N)c(C#N)c(N)c1C2Sc1ccc(Br)cc1` (stereo unspecified), for which the inhibition entry in the data set on LX2 [7] is “Active”. The Activity result in data set [1] and in data set [6] was “Non-Toxic” in each case. In the data set with Hepatitis C virus [2], this molecule registered an inhibition at 5 µM of 59%. In the data set on Hepatitis C virus [3], at 10 µM the inhibition was 49%. This molecule yielded an inhibition at 25 µM in the data set on Hepatitis C virus [4] of 32%. The inhibition entry in the data set on Hepatitis C virus [5] was “inactive”.

Turning to `CCN(CC)c1ccc2c(c1)Oc1nc(N)c(C#N)c(N)c1C2Sc1ccc(SC)cc1` (stereo unspecified), in the data set on LX2 [8], the inhibition result is “Active”. In the data set with Hepatitis C virus [2], this molecule registered an inhibition at 5 µM of 29%. In addition, the inhibition at 10 µM in the data set on Hepatitis C virus [3] was determined as 35%. The molecule also had an inhibition at 25 µM in the data set on Hepatitis C virus [4] of 45%. Besides, the inhibition entry in the data set with Hepatitis C virus [5] is “inactive”. In data set [6], the Activity result is reported as “Non-Toxic”.

On to `CCN(CC)c1ccc2c(c1)Oc1nc(N)c(C#N)c(N)c1C2Sc1ccc(F)cc1` (stereo unspecified), for which, in the data set on LX2 [7], the inhibition entry is “Active”. Moreover, the Activity entry in data set [1] and in data set [6] was “Non-Toxic” in each case. The molecule further came in with an inhibition at 5 µM in the data set on Hepatitis C virus [2] of 33%. In the data set with Hepatitis C virus [3], 10 µM produced 3% inhibition. Moreover, the inhibition at 25 µM in the data set with Hepatitis C virus [4] was 0%. In the data set with Hepatitis C virus [5], the inhibition result is “inactive”.

Consider `CCc1ccc(SC2c3ccc(N(CC)CC)cc3Oc3nc(N)c(C#N)c(N)c32)cc1` (stereo unspecified), for which the inhibition entry in the data set with LX2 [8] was “Active”. Besides, the Activity result in data set [1] and in data set [6] was “Non-Toxic” each time. Besides, in the data set on Hepatitis C virus [2], the inhibition at 5 µM amounted to 47%. In the data set with Hepatitis C virus [3], this molecule yielded an inhibition at 10 µM of 0%. Besides, the inhibition at 25 µM in the data set on Hepatitis C virus [4] was 19%. Moreover, the inhibition entry with Hepatitis C virus [5] was “inactive”.

For the molecule `CCN(CC)c1ccc2c(c1)Oc1nc(N)c(C#N)c(N)c1C2Sc1ccc(Cl)cc1` (stereo unspecified), the Activity entry in data set [1] was “Toxic”; in data set [6] it was “Non-Toxic”. Moreover, the inhibition at 5 µM in the data set on Hepatitis C virus [2] was 42%. Moreover, the inhibition at 10 µM in the data set on Hepatitis C virus [3] was found to be 34%. Besides, the inhibition at 25 µM in the data set with Hepatitis C virus [4] stood at 47%. Besides, the inhibition entry with Hepatitis C virus [5] is “inactive”.
